Here are results for two molecules from patent US8338423B2, “Compositions for the treatment of hyperphenylalaninemia” (Universidad de Zaragoza, priority 2007, dated 2012).

In series [1] the target is T1, PAH (Mus musculus, UniProt P16331).
T1 construct: Liver homogenates were prepared at 4° C; from tissue; host or cells: liver of C57Bl/6 mice
T1 sequence (P16331 1-453): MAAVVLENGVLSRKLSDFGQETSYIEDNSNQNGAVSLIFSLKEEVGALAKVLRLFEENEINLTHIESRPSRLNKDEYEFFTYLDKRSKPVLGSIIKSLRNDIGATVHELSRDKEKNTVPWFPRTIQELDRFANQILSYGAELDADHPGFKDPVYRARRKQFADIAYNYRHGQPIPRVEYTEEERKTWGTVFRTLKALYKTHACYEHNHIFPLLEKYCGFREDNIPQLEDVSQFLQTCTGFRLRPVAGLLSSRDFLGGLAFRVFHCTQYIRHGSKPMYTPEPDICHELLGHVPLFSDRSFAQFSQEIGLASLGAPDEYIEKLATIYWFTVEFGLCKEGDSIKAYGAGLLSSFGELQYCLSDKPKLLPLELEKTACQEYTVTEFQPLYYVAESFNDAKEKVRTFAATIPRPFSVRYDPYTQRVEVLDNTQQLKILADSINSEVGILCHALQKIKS
In words: Hepatic PAH activity in mice after oral treatment. In kind it is in vivo. The conditions noted are these: oral about 5.9 mg/kg/day for 10 days; for measured PAH activity: liver extract, control group 1.27±0.63. On the procedure: (§1) Solutions of Compounds 11 and Compound 13 were prepared at concentrations of 5 mg/ml (14 mM) in 10% DMSO and 10% glucose. For that, stocks of 50 mg/ml (140 mM) of each compound in 100% DMSO were diluted 1:10 with a 10% glucose solution. Both the stocks and the final solutions of Compounds 11 and 13 are in fact suspensions since the compound is not soluble al these conditions.
(§2) Animal experiments were performed by Beat Töny (University of Zurich Children's Hospital). 25 μl/day of 10% DMSO (Group 1, control) or the solutions of Compound 11 (Group 2) or Compound 13 (Group […]) were administered orally for 10 days to young adult C57BI/6 mice (all females) exactly 12 weeks old and with weight between 19 to 23 g were in each group, i.e. in Group 2 and 3 animals were given about 5.9 mg/kg/day. Five animals were treated in each group, and no weight change was experienced upon treatment, i.e. <5% change between start and end. Animals were sacrificed at day 10 of treatment, and their livers were sectioned in two frozen immediately in liquid nitrogen, then the frozen half-livers were sent to the Department of Biomedicine, University of Bergen in dry ice. Liver homogenates were prepared at 4° C. in presence of dithiothreitol (DTT) and the protease inhibitors phenylmethylsulfonyl fluoride, leupeptin, and pepstatin as described, Elzaouk L, et al. J Biol Chem 2003; 278(30):28303-11. After homogeneization the extracts were clarified by centrifugation al 170,000 g for 30 min at 4° C.
(§3) The concentration of soluble protein was about 35 mg/ml of liver extract, similar in each group. The hepatic PAH response to oral supplementation of DMSO and of Compounds 11, 13 in 10% DMSO was analyzed b determining: • i) PAH activity, as described, after removal of free amino acids and contaminants of low molecular weight by using Zebra™ Desalt Spin columns(Pierce). • ii) Pah-mRNA expression by quantitative real-time PCR analysis, performed as reported

For series [2], the system named is Pah-mRNA. The experiment in a line: Pah-mRNA expression in mouse liver by quantitative real-time PCR. The series is classed as in vivo. The conditions noted are these: treated mice compared to controls, 10 days oral. On the procedure:
as §2, with “Liver homogenates were prepared at 4° C. in presence of dithiothreitol (DTT) and the protease inhibitors phenylmethylsulfonyl fluoride, leupeptin, and pepstatin as described, Elzaouk L, et al. J Biol Chem 2003; 278(30):28303-11. After homogeneization the extracts were clarified by centrifugation al 170,000 g for 30 min at 4° C.” left out
as §3
Background: In qPCR the cycle at which signal appears reflects the starting amount.

For series [3], the system named is wt-PAH and I65T and R68S mutants expressed in A293 cells. The experiment in a line: PAH activity in extracts of transiently transfected A293 cells. In kind it is cell-based, human. The conditions noted are these: 40 μM compound, 24 h, vs DMSO 1% controls (FIG. 4A). On the procedure:
(§4) Human embryonic kidney cells (A293; purchased from Invitrogen) were grown in Dulbecco's Modified Eagle's Medium (DMEM) containing 4.5 g/l glucose, 10% (v/v) fetal calf serum, 2 mM L-glutamine, 100 i.u./ml penicillin, 100 μg/ml streptomycin and 0.25 mg/ml G-418. A293 cells were transiently transfected with 1 μg of pcDNA3-PAH expression vector (wt or mutant PAH constructs), using the lipofectamine system (Gibco, Invitrogen) as described by the manufacturer. Pharmacological chaperones were added after 5 h of transfection (final concentration 40 μM ligand in DMSO 1%), incubated for 24 h and cells were then harvested and stored at −80° C. […]
(§5) Western blot analyses were performed after SDS-PAGE (10% acrylamide) using as primary antibody a monoclonal mouse ant-human PAH (Chemicon, Australia) and as secondary antibody a goat anti-mouse HRP conjugate (Bio-Rad, US). Detection was performed using a chemiluminiscence method (ECL; Amersham Biosciences) and quantified an a Fluor-S™ Multilmager (Bio-Rad, US) using Quantify one v. […]
(§6) After transfection of A293 cells with constructs carrying wt-PAH and PKU mutants cDNA, the cells were incubated for 24 h in the presence or absence of 40 μM of hit compounds 11 and 13. Cell were harvested and immunoreactive PAH protein and PAH activity were measured in soluble cell extracts. […]

Series [4] relates to PAH protein expressed in A293 cells. The experiment in a line: Immunoreactive PAH protein (Western blot) in transfected A293 cells. In kind it is cell-based, human. The conditions noted are these: 40 μM compound, 24 h (FIG. 4B). On the procedure:
as §4, §5, §6
Background: In western blotting, separated proteins are transferred to a membrane and probed.

A short description of series [5]: Solubility in dosing stocks and final solutions. The series is classed as physicochemical. The conditions noted are these: 50 mg/ml in 100% DMSO stock and 5 mg/ml in 10% DMSO and 10% glucose. On the procedure: as §1

Consider `Nc1c(-c2ccc3ccccc3n2)c2ccc([N+](=O)[O-])cc2c(=O)n1Cc1ccccc1` [Compound 11, 3-amino-2-benzyl-7-nitro-4-(2-quinolyl)-1,2-dihydroisoquinolin-1-one], for which the “measured PAH activity” value in series [1] was found to be 2.2±0.78. Also, the “increase in PAH activity” value in series [1] (liver, C57BI/6 mice) came out at 1.65 fold. Also, the Pah-mRNA expression result in series [2] is listed as “No change”. Further, the PAH activity enhancement in series [3] was 60-100%. For the same molecule, in series [4], the PAH immunoreactive protein result is given as “increase in PAH immunoreactive protein was observed”. Moreover, the solubility entry in series [5] is listed as “not soluble”.
For the molecule `Cc1ccnc(-n2c(=S)[nH]c3sc(C)c(C)c3c2=O)c1` [Compound 13, 5,6-dimethyl-3-(4-methyl-2-pyridinyl)-2-thioxo-2,3 dihydrothieno[2,3-d]pyrimidin-4(1H)-one], in series [1], the “measured PAH activity” value came to 1.41±0.54. In addition, the “increase in PAH activity (significance)” value in series [1] (liver) is given as “not significant”. In addition, in series [3], the PAH activity enhancement is on record as 40-50%. Also, the solubility entry in series [5] was “not soluble”.
